Publication PMC10589313 (Nature Communications, 2023)
Values joined by “and” are separate entries in the source; they are usually repeats but may differ in a detail not shown here. Identical values can stand only once. Blank lines part the entries; values can stand above or below the compound they belong to.

Legend:
H4R = settings: cited from earlier work
H3R = settings: cited from earlier work
human wild-type H4R = target: T1, human wild-type H4R (Homo sapiens, UniProt Q9H3N8); assay: TGFα shedding assay, wild-type H4R; type: cell-based; settings: WT H4R; AP-TGFα release; read-out: Emax (%) mean ± SEM
T1 construct: a mutant H4R (human, full-length, and untagged); expressed in transfected cells; host or cells: HEK293A
Protocol: (§1) The mutants were prepared using the primers listed in Supplementary Table 2. […] The chimeric Gαq/i1 subunit comprises the Gαq backbone and Gαi1-derived six-amino acid C-terminus and couples with Gi-coupled H4R but induces a Gq-dependent TGFα shedding response. After culturing for 1 day and incubating at 37 °C in a 5% CO2 incubator, the transfected cells were harvested by trypsinization, neutralized with Dulbecco’s modified Eagle’s medium containing 10% fetal calf serum (FCS) and penicillin–streptomycin, washed once with Hank’s balanced salt solution (HBSS) containing 5 mM of HEPES (pH 7.4), and resuspended in 6 mL of the HEPES-containing HBSS. The cell suspension was seeded into a 96-well plate at a volume of […] per well (typically, 48 wells per transfected cells) and incubated for 30 min in the CO2 incubator. Test compounds (10×, diluted in 0.01% BSA and 5 mM of HEPES-containing HBSS, […] volume) were added to duplicate wells and incubated for 1 h. After centrifugation, the conditioned medium ([…]) was transferred to an empty 96-well plate. AP reaction solution [10 mM of p-nitrophenylphosphate (p-NPP), 120 mM of Tris–HCl (pH 9.5), 40 mM of NaCl, and 10 mM of MgCl2] was dispensed into the cell culture plates and plates containing conditioned media ([…]). Absorbance was measured at 405 nm before and after a 1-h incubation period at 25 °C using a microplate reader (iMark™ Microplate Absorbance Reader; BioRad). Ligand-induced AP-TGFα release was calculated as previously described. The vehicle-treated AP-TGFα release signal was set as a baseline unless otherwise specified. AP-TGFα release signals were fitted with a four-parameter sigmoidal concentration-response curve, from which EC50 and Emax values were obtained, using GraphPad Prism 9 software (GraphPad Prism). Negative values of logarithmically transformed EC50 values (pEC50) were used to calculate the mean and standard error of independent experiments.
(§2) All functional study data were analyzed using Prism 9 (GraphPad) and are presented as mean ± standard error of the mean (SEM) of three independent experiments. Statistical analyses were performed using Prism 9 (GraphPad) with one-way analysis of variance followed by Dunnett’s post-hoc test. Values with p < 0.05 are considered statistically significant.

human H4R D94A mutant = target: T2, human H4R D94A mutant (Homo sapiens, UniProt Q9H3N8, D94A); assay: TGFα shedding assay, H4R D94A mutant; type: cell-based; settings: D94A mutant vs wild type
T2 construct: a mutant H4R (human, full-length, and untagged); expressed in transfected cells; host or cells: HEK293A
T2 sequence (Q9H3N8 whole entry D94A): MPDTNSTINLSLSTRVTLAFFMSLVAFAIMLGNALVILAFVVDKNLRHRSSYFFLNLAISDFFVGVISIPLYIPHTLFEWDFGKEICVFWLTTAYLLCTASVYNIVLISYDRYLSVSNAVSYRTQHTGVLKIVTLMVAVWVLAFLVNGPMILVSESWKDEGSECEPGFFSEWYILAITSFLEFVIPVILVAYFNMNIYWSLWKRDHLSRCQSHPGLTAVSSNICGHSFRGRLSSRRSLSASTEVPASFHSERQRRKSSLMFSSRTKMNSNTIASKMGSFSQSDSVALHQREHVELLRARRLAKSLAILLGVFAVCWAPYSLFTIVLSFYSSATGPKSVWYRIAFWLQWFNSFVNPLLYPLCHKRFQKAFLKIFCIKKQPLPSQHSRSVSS
Protocol: as §1
(§3) All functional study data were analyzed using Prism 9 (GraphPad) and are presented as mean ± standard error of the mean (SEM) of three independent experiments. […]

human H4R Y95A mutant = target: T3, human H4R Y95A mutant (Homo sapiens, UniProt Q9H3N8, Y95A); assay: TGFα shedding assay, H4R Y95A mutant; type: cell-based; settings: Y95A mutant vs wild type
T3 construct: a mutant H4R (human, full-length, and untagged); expressed in transfected cells; host or cells: HEK293A
T3 sequence (Q9H3N8 whole entry Y95A): as the sequence (Q9H3N8 whole entry D94A) above, with A94D, Y95A counted along it
Protocol: as §1, §3

human H4R T99A mutant = target: T4, human H4R T99A mutant (Homo sapiens, UniProt Q9H3N8, T99A); assay: TGFα shedding assay, H4R T99A mutant; type: cell-based; settings: T99A mutant; AP-TGFα release; read-out: Emax (%) mean ± SEM
T4 construct: a mutant H4R (human, full-length, and untagged); expressed in transfected cells; host or cells: HEK293A
T4 sequence (Q9H3N8 whole entry T99A): as the sequence (Q9H3N8 whole entry D94A) above, with A94D, T99A counted along it
Protocol: as §1, §2

human H4R N147A mutant = target: T5, human H4R N147A mutant (Homo sapiens, UniProt Q9H3N8, N147A); assay: TGFα shedding assay, H4R N147A mutant; type: cell-based; settings: N147A mutant; AP-TGFα release; read-out: Emax (%) mean ± SEM
T5 construct: a mutant H4R (human, full-length, and untagged); expressed in transfected cells; host or cells: HEK293A
T5 sequence (Q9H3N8 whole entry N147A): as the sequence (Q9H3N8 whole entry D94A) above, with A94D, N147A counted along it
Protocol: as §1, §2

human H4R N147W mutant = target: T6, human H4R N147W mutant (Homo sapiens, UniProt Q9H3N8, N147W); assay: TGFα shedding assay, H4R N147W mutant; type: cell-based; settings: N147W (H1R mimic) mutant vs wild type
T6 construct: a mutant H4R (human, full-length, and untagged); expressed in transfected cells; host or cells: HEK293A
T6 sequence (Q9H3N8 whole entry N147W): as the sequence (Q9H3N8 whole entry D94A) above, with A94D, N147W counted along it
Protocol: as §1, §2

human H4R N147Y mutant = target: T7, human H4R N147Y mutant (Homo sapiens, UniProt Q9H3N8, N147Y); assay: TGFα shedding assay, H4R N147Y mutant; type: cell-based; settings: N147Y mutant; AP-TGFα release; read-out: Emax (%) mean ± SEM
T7 construct: a mutant H4R (human, full-length, and untagged); expressed in transfected cells; host or cells: HEK293A
T7 sequence (Q9H3N8 whole entry N147Y): as the sequence (Q9H3N8 whole entry D94A) above, with A94D, N147Y counted along it
Protocol: as §1, §2

human H4R E182N mutant = target: T8, human H4R E182N mutant (Homo sapiens, UniProt Q9H3N8, E182N); assay: TGFα shedding assay, H4R E182N mutant; type: cell-based; settings: E182N (H1R mimic) mutant vs wild type
T8 construct: a mutant H4R (human, full-length, and untagged); expressed in transfected cells; host or cells: HEK293A
T8 sequence (Q9H3N8 whole entry E182N): as the sequence (Q9H3N8 whole entry D94A) above, with A94D, E182N counted along it
Protocol: as §1, §3

human H4R Y319A mutant = target: T9, human H4R Y319A mutant (Homo sapiens, UniProt Q9H3N8, Y319A); assay: TGFα shedding assay, H4R Y319A mutant; type: cell-based; settings: Y319A, raw replicates
T9 construct: a mutant H4R (human, full-length, and untagged); expressed in transfected cells; host or cells: HEK293A
T9 sequence (Q9H3N8 whole entry Y319A): as the sequence (Q9H3N8 whole entry D94A) above, with A94D, Y319A counted along it
Protocol: as §1, §2

human H4R F344I mutant = target: T10, human H4R F344I mutant (Homo sapiens, UniProt Q9H3N8, F344I); assay: TGFα shedding assay, H4R F344I mutant; type: cell-based; settings: F344I (H1R mimic) mutant vs wild type
T10 construct: a mutant H4R (human, full-length, and untagged); expressed in transfected cells; host or cells: HEK293A
T10 sequence (Q9H3N8 whole entry F344I): as the sequence (Q9H3N8 whole entry D94A) above, with A94D, F344I counted along it
Protocol: as §1, §2

human H4R Q347A mutant = target: T11, human H4R Q347A mutant (Homo sapiens, UniProt Q9H3N8, Q347A); assay: TGFα shedding assay, H4R Q347A mutant; type: cell-based; settings: Q347A mutant; AP-TGFα release; read-out: Emax (%) mean ± SEM
T11 construct: a mutant H4R (human, full-length, and untagged); expressed in transfected cells; host or cells: HEK293A
T11 sequence (Q9H3N8 whole entry Q347A): as the sequence (Q9H3N8 whole entry D94A) above, with A94D, Q347A counted along it
Protocol: as §1, §2

human H4R Q347G mutant = target: T12, human H4R Q347G mutant (Homo sapiens, UniProt Q9H3N8, Q347G); assay: TGFα shedding assay, H4R Q347G mutant; type: cell-based; settings: for Shedding assay: Q347G, raw replicates
T12 construct: a mutant H4R (human, full-length, and untagged); expressed in transfected cells; host or cells: HEK293A
T12 sequence (Q9H3N8 whole entry Q347G): as the sequence (Q9H3N8 whole entry D94A) above, with A94D, Q347G counted along it
Protocol: as §1, §2

human H4R W348A mutant = target: T13, human H4R W348A mutant (Homo sapiens, UniProt Q9H3N8, W348A); assay: TGFα shedding assay, H4R W348A mutant; type: cell-based; settings: W348A mutant vs wild type
T13 construct: a mutant H4R (human, full-length, and untagged); expressed in transfected cells; host or cells: HEK293A
T13 sequence (Q9H3N8 whole entry W348A): as the sequence (Q9H3N8 whole entry D94A) above, with A94D, W348A counted along it
Protocol: as §1, §3

H1R = settings: range in words; cited from earlier work
H2R = settings: range in words; cited from earlier work

Compound: CN=C(NC#N)NC[C@H]1CC[C@H](c2cnc[nH]2)O1 [OUP-16]
- selectivity for H4R (H4R; H4R over H3R): 16 fold
- Ki (H4R; read-out: H4R Ki): 125 nM
- Ki (H3R; read-out: H3R Ki): 2000 nM

- Emax (human wild-type H4R): 19.4 ± 1.15%
- signaling activity at mutant, in words (human H4R D94A mutant): loss of activity
- signaling activity at mutant, in words (human H4R Y95A mutant): dramatically reduced
- Emax (human H4R T99A mutant): 22.8 ± 4.74%
- Emax (human H4R N147A mutant): 14.1 ± 1.55%
- signaling activity at mutant, in words (human H4R N147W mutant): loss of signaling activity
- Emax (human H4R N147Y mutant): 12.7 ± 0.59%
- signaling activity at mutant, in words (human H4R E182N mutant): loss of signaling activity
- signaling activity at mutant, in words (human H4R F344I mutant): did not exhibit histamine activity
- Emax (human H4R Q347A mutant): 10.1 ± 0.39%
- Shedding assay (human H4R Q347G mutant; Histamine (M) -7): -1.992
- Emax (human H4R Q347G mutant; Q347G mutant, AP-TGFα release, read-out: Emax (%) mean ± SEM): 8.8 ± 2.03%
- signaling activity at mutant, in words (human H4R W348A mutant): loss of signaling activity
Compound: NCCc1c[nH]cn1 [Histamine, histamine]
- Shedding assay (human H4R Y319A mutant; Histamine (M) -5): 10.8768 and 12.6921 and 5.241 and 7.176 and 7.908 and 3.094 and 14.7688 and 13.1717 and 9.412
- Shedding assay (human H4R Y319A mutant; Histamine (M) -6): 7.788 and 3.872 and 6.096 and 6.136 and 6.023 and -28.9656 and 4.365 and 5.9934 and -0.2046
- Shedding assay (human H4R Y319A mutant; Histamine (M) -7): 2.44 and -1.231 and 2.155 and 1.85 and -1.394 and -29.3347 and -0.9921 and -1.291 and -2.241
- Shedding assay (human H4R Y319A mutant; Histamine (M) -8): 0.6613 and -7 and -0.6175 and -0.4917 and -2.608 and -5.072 and 0.7937 and -1.913 and -2.583
- Shedding assay (human H4R Y319A mutant; Histamine (M) -9): -1.209 and -22 and -6.981 and -12.6602 and -5.831 and -0.2422 and 1.077 and -0.278 and -3.864
- Shedding assay (human H4R Y319A mutant; Histamine (M) -10): 1.569 and -4.989 and -1.258 and -2.207 and 3.939 and 1.7806 and 0.1134 and -2.911 and -0.5847
- Shedding assay (human H4R Q347G mutant; Histamine (M) -5): 4.036 and 4.533 and 6.034 and 9.629 and 9.888 and 8.1039 and 5.715 and 9.816 and 2.227
- Shedding assay (human H4R Q347G mutant; Histamine (M) -6): 1.244 and 2.414 and 2.709 and 6.101 and 2.59 and 6.7488 and 1.268 and 6.261 and -9.381
- Shedding assay (human H4R Q347G mutant; Histamine (M) -8): -6.39 and -0.908 and -4.351 and 0.1532 and -4.023 and 1.012 and -2.686 and 0.1556 and -3.9539
- Shedding assay (human H4R Q347G mutant; Histamine (M) -9): -4.698 and -2.781 and -3.3698 and 0.654 and -4.363 and -0.5978 and -4.585 and -1.275 and -2.147
- Shedding assay (human H4R Q347G mutant; Histamine (M) -10): -5.104 and -0.2815 and -4.911 and 2.46 and -0.8571 and 1.119 and -8.947 and 3.16 and -0.4453
- affinity of H4R (H4R; range in words): nM range
- affinity of H3R (H3R; range in words): nM range
- affinity of H1R (H1R): μM range
- affinity of H2R (H2R): μM range
